Experiments:
[1] = biological target: T1, HIV integrase (recombinant integrase) (Human immunodeficiency virus type 1 group M subtype B, UniProt P04585); assay: HIV integrase assay: strand transfer catalyzed by recombinant integrase; assay type: biochemical; settings: per WO 02/30930, read-out: IC50, inhibition of strand transfer activity of integrase
T1 construct: Assays for the strand transfer activity of integrase were conducted in accordance with WO 02/30930 for recombinant integrase
Protocol: Assays for the strand transfer activity of integrase were conducted in accordance with WO 02/30930 for recombinant integrase.
Further description on conducting the assay using preassembled complexes is found in Wolfe, A. L. et al., J. Virol. 1996, 70: 1424-1432, Hazuda et al., J. Virol. 1997, 71: 7005-7011; Hazuda et al., Drug Design and Discovery 1997, 15: 17-24; and Hazuda et al., Science 2000, 287: 646-650.

HIV = assay: Assay for inhibition of HIV replication (acute HIV infection of T-lymphoid cells); assay type: cell-based; settings: Human immunodeficiency virus 1
Protocol: Assays for the inhibition of acute HIV infection of T-lymphoid cells were conducted in accordance with Vacca, J. P. et al., Proc. Natl. Acad. Sci. USA 1994, 91: 4096.

## O=C1C2=C(O)C(=O)N(C3CC3)CC2CCN1Cc1ccc(F)c(Cl)c1 (racemic) [Example 18, 2-(3-Chloro-4-fluorobenzyl)-8-hydroxy-6-cyclopropyl-2,3,4,4a,5,6-hexahydro-2,6-naphthyridine-1,7-dione]
[1]
  IC50: ≤ 1 µM
HIV
  IC95: ≤ 10 µM

## CC[C@@H]1[C@@H]2CCN(Cc3ccc(F)cc3)C(=O)C2=C(O)C(=O)N1C (relative stereo) [Example 6, (Cis-4a,5)-5-Ethyl-2-(4-fluorobenzyl)-8-hydroxy-6-methyl-2,3,4,4a,5,6-hexahydro-2,6-naphthyridine-1,7-dione]
[1]
  IC50: ≤ 1 µM
HIV
  IC95: ≤ 10 µM

## CC[C@@H]1[C@H]2CCN(Cc3ccc(F)cc3)C(=O)C2=C(O)C(=O)N1C (relative stereo) [Example 7, (Trans-4a,5)-5-Ethyl-2-(4-fluorobenzyl)-8-hydroxy-6-methyl-2,3,4,4a,5,6-hexahydro-2,6-naphthyridine-1,7-dione]
[1]
  IC50: ≤ 1 µM
HIV
  IC95: ≤ 10 µM

## CN1C(=O)C(O)=C2C(=O)N(Cc3ccc(F)cc3)CCC2C1C(=O)OC(C)(C)C (single isomer, unassigned) [Example 4, 5-(tert-Butyloxycarbonyl)-2-(4-fluorobenzyl)-8-hydroxy-6-methyl-2,3,4,4a,5,6-hexahydro-2,6-naphthyridine-1,7-dione]
[1]
  IC50: ≤ 1 µM
HIV
  IC95: ≤ 10 µM

## CN1C(=O)C(O)=C2C(=O)N(Cc3ccc(F)cc3)CCC2C1c1ncccn1 (single isomer, unassigned) [first eluting enantiomer of Example 17, 5-(Pyrimidin-2-yl)-2-(4-fluorobenzyl)-8-hydroxy-6-methyl-2,3,4,4a,5,6-hexahydro-2,6-naphthyridine-1,7-dione]
[1]
  IC50: ≤ 1 µM
HIV
  IC95: ≤ 10 µM

## CN1CC2CCN(Cc3ccc(F)cc3)C(=O)C2=C(O)C1=O (stereo not drawn) [Example 1, 2-(4-Fluorobenzyl)-8-hydroxy-6-methyl-2,3,4,4a,5,6-hexahydro-2,6-naphthyridine-1,7-dione]
[1]
  IC50: ≤ 1 µM
HIV
  IC95: ≤ 10 µM

## CN1C(=O)C(O)=C2C(=O)N(Cc3ccc(F)cc3)CCC2C1(C)C (stereo not drawn) [Example 2, 2-(4-Fluorobenzyl)-8-hydroxy-5,5,6-trimethyl-2,3,4,4a,5,6-hexahydro-2,6-naphthyridine-1,7-dione]
[1]
  IC50: ≤ 1 µM
HIV
  IC95: ≤ 10 µM

## CN1CC2(c3ccccc3)CCN(Cc3ccc(F)cc3)C(=O)C2=C(O)C1=O (stereo not drawn) [Example 3, 2-(4-Fluorobenzyl)-8-hydroxy-6-methyl-4-a-phenyl-2,3,4,4a,5,6-hexahydro-2,6-naphthyridine-1,7-dione]
[1]
  IC50: ≤ 1 µM
HIV
  IC95: ≤ 10 µM

## CCC1NC(=O)C(O)=C2C(=O)N(Cc3ccc(F)cc3)CCC21 (stereo not drawn) [Example 5]
[1]
  IC50: ≤ 1 µM
HIV
  IC95: ≤ 10 µM

## CC1(C)C2CCN(Cc3ccc(F)cc3)C(=O)C2=C(O)C(=O)N1CC1CC1 (stereo not drawn) [Example 8, 6-(Cyclopropylmethyl)-2-(4-fluorobenzyl)-8-hydroxy-5,5-dimethyl-2,3,4,4a,5,6-hexahydro-2,6-naphthyridine-1,7-dione]
[1]
  IC50: ≤ 1 µM
HIV
  IC95: ≤ 10 µM

## CN(C)C(=O)C1C2CCN(Cc3ccc(F)cc3)C(=O)C2=C(O)C(=O)N1C (stereo not drawn) [Example 9, 5-(Dimethylaminocarbonyl)-2-(4-fluorobenzyl)-8-hydroxy-6-methyl-2,3,4,4a,5,6-hexahydro-2,6-naphthyridine-1,7-dione]
[1]
  IC50: ≤ 1 µM
HIV
  IC95: ≤ 10 µM

## CN1C(=O)C(O)=C2C(=O)N(Cc3ccc(F)c(Cl)c3)CCC2C1(C)C (stereo not drawn) [Example 10]
[1]
  IC50: ≤ 1 µM
HIV
  IC95: ≤ 10 µM

## CN1C(=O)C(O)=C2C(=O)N(Cc3ccc(F)cc3)CCC2C12CCCC2 (stereo not drawn) [Example 11]
[1]
  IC50: ≤ 1 µM
HIV
  IC95: ≤ 10 µM

## CN1C(=O)C(O)=C2C(=O)N(Cc3ccc(F)c(F)c3)CCC2C1(C)C (stereo not drawn) [Example 12]
[1]
  IC50: ≤ 1 µM
HIV
  IC95: ≤ 10 µM

## CN1C(=O)C(O)=C2C(=O)N(Cc3ccc(F)cc3)CCC2C12CCC2 (stereo not drawn) [Example 13]
[1]
  IC50: ≤ 1 µM
HIV
  IC95: ≤ 10 µM

## CC(C)CNC(=O)C1C2CCN(Cc3ccc(F)cc3)C(=O)C2=C(O)C(=O)N1C (stereo not drawn) [Example 14]
[1]
  IC50: ≤ 1 µM
HIV
  IC95: ≤ 10 µM

## CN1C(=O)C(O)=C2C(=O)N(Cc3ccc(F)cc3)CCC2C1C(=O)NC(C)(C)C (stereo not drawn) [Example 15]
[1]
  IC50: ≤ 1 µM
HIV
  IC95: ≤ 10 µM

## CN1C(=O)C(O)=C2C(=O)N(Cc3ccc(F)cc3)CCC2C1C(=O)NCc1ccccn1 (stereo not drawn) [Example 16]
[1]
  IC50: ≤ 1 µM
HIV
  IC95: ≤ 10 µM

— patent US7619086B2 (Merck & Co., Inc., priority 2004, dated 2009)
